Values joined by “and” are separate entries in the source; they are usually repeats but may differ in a detail not shown here. Equal entries are not always repeated.
Assays:
[1] = molecular target: T1, human GPR119 (Homo sapiens, UniProt Q8TDV5); test: HTRF cAMP cell-based GPR119 agonist assay (hGPR119 HEK-CRE beta-lactamase cells); parameters: host or cells: hGPR119-HEK293-CRE-beta-lactamase cells; conditions: HTRF cAMP, hGPR119 HEK-CRE beta-lactamase cells; each line is a separate determination; read-out: Human cAMP Functional EC50
T1 sequence (Q8TDV5 1-335): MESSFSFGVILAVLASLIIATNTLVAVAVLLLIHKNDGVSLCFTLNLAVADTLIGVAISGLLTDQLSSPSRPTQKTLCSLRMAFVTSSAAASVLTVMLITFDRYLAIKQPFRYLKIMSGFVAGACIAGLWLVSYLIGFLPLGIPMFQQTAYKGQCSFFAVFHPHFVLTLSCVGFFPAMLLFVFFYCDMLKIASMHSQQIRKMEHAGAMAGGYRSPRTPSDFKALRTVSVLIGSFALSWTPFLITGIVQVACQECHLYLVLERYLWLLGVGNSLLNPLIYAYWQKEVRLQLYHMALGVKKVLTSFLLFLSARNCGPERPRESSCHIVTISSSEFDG
Procedure: GPR119 agonist activity was also determined with a cell-based assay utilizing an HTRF (Homogeneous Time-Resolved Fluorescence) cAMP detection kit (cAMP dynamic 2 Assay Kit; Cis Bio cat #62AM4PEC) that measures cAMP levels in the cell. The method is a competitive immunoassay between native cAMP produced by the cells and the cAMP labeled with the dye d2. The tracer binding is visualized by a Mab anti-cAMP labeled with Cryptate. The specific signal (i.e. energy transfer) is inversely proportional to the concentration of cAMP in either standard or sample.
Specifically, hGPR119HEK-CRE beta-lactamase cells (Invitrogen 2.5×10^7/mL; the same cell line used in the beta-lactamase assay described above) are removed from cryopreservation and diluted in growth medium (Dulbecco's modified Eagle medium high glucose (DMEM; Gibco Cat #11995-065), 1% charcoal dextran treated fetal bovine serum (CD serum; HyClone Cat # SH30068.03), 1×MEM Nonessential amino acids (Gibco Cat #15630-080) and 25 mM HEPES pH 7.0 (Gibco Cat #15630-080)). The cell concentration was adjusted to 1.5×10^5 cells/mL and 30 mLs of this suspension was added to a T-175 flask and incubated at 37 degrees Celsius in a humidified environment in 5% carbon dioxide. […]
Varying concentrations of each compound to be tested were diluted in assay buffer containing 3-isobutyl-1-methylxanthin (IBMX; Sigma cat #15879) and added to the assay plate wells in a volume of 2 microL (final IBMX concentration was 400 microM and final DMSO concentration was 0.58%). […] The plates were then incubated at room temperature and after 60 minutes, changes in the HTRF signal were read with an Envision 2104 multilabel plate reader using excitation of 330 nm and emissions of 615 and 665 nm. Raw data were converted to nM cAMP by interpolation from a cAMP standard curve (as described in the manufacturer's assay protocol) and EC50 determinations were made from an agonist-response curves analyzed with a curve fitting program using a 4-paramter logistic dose response equation.

[2] = molecular target: T2, human GPR119 (Homo sapiens, UniProt Q8TDV5); test: DiscoverX PathHunter β-arrestin cell assay (U2OS hGPR119 β-arrestin cell line); assay type: cell-based; conditions: U2OS hGPR119 β-arrestin cells; each line is a separate determination; read-out: Human B-arrestin Functional EC50
T2 construct: host or cells: U2OS hGPR119 β-arrestin cell line
Procedure: GPR119 agonist activity was also determined with a cell-based assay utilizing DiscoverX PathHunter β-arrestin cell assay technology and their U2OS hGPR119 β-arrestin cell line (DiscoverX Cat #93-0356 C3). In this assay, agonist activation is determined by measuring agonist-induced interaction of β-arrestin with activated GPR119. A small, 42 amino acid enzyme fragment, called ProLink was appended to the C-terminus of GPR119. Arrestin was fused to the larger enzyme fragment, termed EA (Enzyme Acceptor). […]
After 16 hours (overnight) the assay plates were removed from the incubator and varying concentrations of each compound to be tested (diluted in assay buffer (1×HBSS+CaCl2+MgCl2 (Gibco Cat #14025-092), 20 mM HEPES pH 7.0 (Gibco Cat #15630-080) and 0.1% BSA (Sigma Cat # A9576)) were added to the assay plate wells in a volume of 5 microliters (final DMSO concentration was 0.5%). After a 90 minute incubation at 37 degrees Celsius in a humidified environment in 5% carbon dioxide, 12 microliters of Galacton Star β-galactosidase substrate (PathHunter Detection Kit (DiscoveRx Cat #93-0001); prepared as described in the manufacturers assay protocol) was added to each well of the assay plate. The plates were incubated at room temperature and after 60 minutes, changes in the luminescence were read with an Envision 2104 multilabel plate reader at 0.1 seconds per well. […]
T2 sequence (P32121 whole entry partner, one chain of several): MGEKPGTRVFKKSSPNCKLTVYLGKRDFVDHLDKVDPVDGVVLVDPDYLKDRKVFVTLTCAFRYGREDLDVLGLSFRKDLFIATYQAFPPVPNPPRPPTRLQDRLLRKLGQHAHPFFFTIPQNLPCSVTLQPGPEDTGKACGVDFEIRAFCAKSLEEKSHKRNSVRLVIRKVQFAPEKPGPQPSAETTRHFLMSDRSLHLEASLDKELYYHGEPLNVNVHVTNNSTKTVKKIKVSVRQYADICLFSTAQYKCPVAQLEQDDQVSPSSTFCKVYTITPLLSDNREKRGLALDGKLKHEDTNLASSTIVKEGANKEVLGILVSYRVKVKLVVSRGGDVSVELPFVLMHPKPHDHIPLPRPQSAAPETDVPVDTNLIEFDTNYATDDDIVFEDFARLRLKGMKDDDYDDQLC

EC50 [1] | EC50 [2] [µM] | SMILES
0.37 µM and 0.194 µM and 0.088 µM | 0.00379 | Cc1c(O[C@@H]2[C@@H]3COC[C@H]2CN(C(=O)OC2(C)CC2)C3)ncnc1N1CCc2ncccc21 [Example 28, 1-Methylcyclopropyl (9-syn)-9-{[6-(2,3-dihydro-1H-pyrrolo[3,2-b]pyridin-1-yl)-5-methylpyrimidin-4-yl]oxy}-3-oxa-7-azabicyclo[3.3.1]nonane-7-carboxylate]
0.311 µM and 0.982 µM and 1.04 µM and 1.33 µM | 0.037 | Cc1c(O[C@@H]2[C@@H]3COC[C@H]2CN(C(=O)OC(C)C)C3)ncnc1N1CCc2cc(S(C)(=O)=O)ccc21 [Example 23, Isopropyl (9-syn)-9-({5-methyl-6-[5-(methylsulfonyl)-2,3-dihydro-1H-indol-1-yl]pyrimidin-4-yl}oxy)-3-oxa-7-azabicyclo[3.3.1]nonane-7-carboxylate]

— patent US20120052130A1, “GPR 119 MODULATORS” (Pfizer Inc., priority 2009, published 2012)
